Measured values taken from patent US20110097274A1, “Carbon-11 and fluorine-18 labeled radioligands for positron emission tomography (PET) imaging for the brain serotonin transporters” (priority 2002, published 2011).
Several values for one entry are separate records, joined by “and”; a condition that tells them apart may be missing. Equal values may be shown once. Read-outs that look alike come from different tables or passages of the source.

Test system: SERT
Test: Baboon PET imaging: brain uptake, kinetic analysis and SERT parameters
Format: in vivo
Conditions: for Kp: male, baboon, brain, intravenous
Procedure: PET imaging protocol: PET experiments (n=20) were performed at Columbia University. Two adult male baboons (baboon A and B) were studied twice with each of the 5 radioligands (4 experiments per radioligand). All experiments took place within a 9-month period. Baboons A and B were 31 kg and 21 kg in weight at the beginning of the experimental period and 28 and 22 kg at the end, respectively. Test and retest experiments with the same radioligand were obtained on different days, with an average interval of 117±53 days.
Experiments were performed according to protocols approved by the Columbia-Presbyterian Medical Center Institutional Animal Care and Use Committee. Fasted animals were immobilized with ketamine (10 mg/kg i.m.), and anesthetized with 1.8% isoflurane via an endotracheal tube. Vital signs were monitored every 10 minutes and the temperature was kept constant at 37° C. with heated water blankets. An i.v. perfusion line was used for hydration and injection of radioligands and nonradioactive drugs. A catheter was inserted in a femoral artery for arterial blood sampling. Head was positioned at the center of the field of view as defined by imbedded laser lines. PET imaging was performed with the ECAT EXACT HR+PET scanner (Siemens/CTI, Knoxville, Tenn.). In 3D mode, this camera provides an in-plane resolution of 4.3 mm, 4.5 mm, 5.4 mm and 8.0 mm full width at half maximum (FWHM) at a distance of 0, 1, 10 and 20 cm from the center of the field of view, respectively (Brix et al., 1997). A 15 minute transmission scan was obtained prior to radioligand injection for attenuation correction. Activity was injected i.v. over 30 seconds. […] Emission data was collected in the 3D mode for 91 minutes as 21 successive frames of increasing duration (6*10 seconds, 2*1 minutes, 4*2 minutes, 2*5 minutes, and 7*10 minutes).
Image analysis: A Magnetic Resonance Image (MRI) of each baboon's brain was obtained for the purpose of identifying the regions of interest (ROI) (T1-weighted axial MRI sequence, acquired parallel to the anterior-posterior commissure, TR 34 msec, TE 5 msec, flip angle of 45 degrees, slice thickness is 1.5 mm, zero gap, matrix 1.5 mm×1 mm×1 mm voxels). The following regions were drawn on the MR images: cerebellum, midbrain, thalamus, striatum, hippocampus, temporal cortex, cingulate cortex and occipital cortex.
PET emission data were attenuation-corrected using the transmission scan, and frames were reconstructed using a Shepp filter (cutoff 0.5 cycles/projection rays). Reconstructed image files were then processed using the image analysis software MEDx (Sensor Systems, Inc., Sterling, Va.). An image was created by summing all the frames, and this summed image was used to define the registration parameters with the MR image, using between-modality automated image registration (AIR) algorithm (Woods et al., 1993). Registration parameters were then applied to the individual frames for registration to the MR data set. Regional boundaries were transferred to the individual registered PET frames, and time-activity curves were measured and decay-corrected. Right and left regions were averaged. For a given animal, the same regions were used for all radioligands.
Brain uptake: Total brain uptake was expressed as percentage of the injected dose per gram of tissue (% ID g^−1) in a region encompassing the entire brain. Regional peak time was defined as the mid-time of the frame associated with the highest activity value. To estimate the degree of wash-out from the brain captured during the scan interval (91 minutes), the decrease in activity from the peak frame to the last frame was calculated and expressed in percentage of the peak activity.
Kinetic analysis: Regional total distribution volumes (VT, mL g^−1) were derived with kinetic analysis of the regional time-activity curves, using the arterial plasma concentrations as input function. […]

[1] = BP = VT ROI − VT CER, baboons, mean ± SD of four experiments
[2] = Mean ± SD of four experiments in two baboons
[3] = baboon A, experiments of FIGS. 5-9 (FIG. 10)
[4] = baboons, mean ± SD of four experiments
[5] = last scan 90 minutes, baboons, mean ± SD of four experiments
[6] = one-tissue compartment model, baboons, mean ± SD of four experiments

With `CN(C)Cc1ccccc1Sc1ccc(Br)cc1N` [[^11C]DAPA] the “Binding potential Cingulate Cortex” value [1] was 7.9 ± 1.0 mL/g, the “Binding potential Hippocampus” value [1] was 15.5 ± 0.7 mL/g and the “Binding potential Midbrain” value [1] was 40.0 ± 4.3 mL/g. The “Binding potential Occipital Cortex” value [1] was 5.7 ± 1.9 mL/g, the “Binding potential Striatum” value [1] was 22.9 ± 0.9 mL/g and the “Binding potential Temporal Cortex” value [1] was 11.2 ± 3.3 mL/g. For the same compound, the “Binding potential Thalamus” value [1] was 45.1 ± 1.8 mL/g, the “Equilibrium specific to non-specific partition coefficient (V3″) Cingulate Cortex” value (Baboon A, single experiment) was 0.29 and 0.26 and the “Equilibrium specific to non-specific partition coefficient (V3″) Hippocampus” value (Baboon A, single experiment) was 0.54 and 0.48. The “Equilibrium specific to non-specific partition coefficient (V3″) Midbrain” value (Baboon A, single experiment) was 1.41 and 1.37, the “Equilibrium specific to non-specific partition coefficient (V3″) Occipital Cortex” value (Baboon A, single experiment) was 0.22 and 0.25 and the “Equilibrium specific to non-specific partition coefficient (V3″) Striatum” value (Baboon A, single experiment) was 0.73 and 0.72. For the same compound, the “Equilibrium specific to non-specific partition coefficient (V3″) Temporal Cortex” value (Baboon A, single experiment) was 0.48 and 0.42, the “Equilibrium specific to non-specific partition coefficient (V3″) Thalamus” value (Baboon A, single experiment) was 1.49 and 1.40 and the “Equilibrium specific to non-specific partition coefficient (V3″) Cingulate Cortex” value (Baboon B, single experiment) was 0.25 and 0.27. For the same compound, the “Equilibrium specific to non-specific partition coefficient (V3″) Hippocampus” value (Baboon B, single experiment) was 0.56 and 0.54, the “Equilibrium specific to non-specific partition coefficient (V3″) Midbrain” value (Baboon B, single experiment) was 1.42 and 1.27 and the “Equilibrium specific to non-specific partition coefficient (V3″) Occipital Cortex” value (Baboon B, single experiment) was 0.15. For the same compound, the “Equilibrium specific to non-specific partition coefficient (V3″) Striatum” value (Baboon B, single experiment) was 0.91 and 0.79, the “Equilibrium specific to non-specific partition coefficient (V3″) Temporal Cortex” value (Baboon B, single experiment) was 0.30 and 0.32 and the “Equilibrium specific to non-specific partition coefficient (V3″) Thalamus” value (Baboon B, single experiment) was 1.81 and 1.52. The “Equilibrium specific to non-specific partition coefficient (V3″) Cingulate Cortex” value [2] was 0.27 ± 0.02, the “Equilibrium specific to non-specific partition coefficient (V3″) Hippocampus” value [2] was 0.53 ± 0.04 and the “Equilibrium specific to non-specific partition coefficient (V3″) Midbrain” value [2] was 1.37 ± 0.07. For the same compound, the “Equilibrium specific to non-specific partition coefficient (V3″) Occipital Cortex” value [2] was 0.19 ± 0.05, the “Equilibrium specific to non-specific partition coefficient (V3″) Striatum” value [2] was 0.79 ± 0.09 and the “Equilibrium specific to non-specific partition coefficient (V3″) Temporal Cortex” value [2] was 0.38 ± 0.09. For the same compound, the “Equilibrium specific to non-specific partition coefficient (V3″) Thalamus” value [2] was 1.55 ± 0.18, the “Thalamus to cerebellum ratio equal to true equilibrium ratio (V3″+1)” value [3] was 2.49 and the “Time at which measured thalamus to cerebellum ratio equals the true equilibrium ratio (estimate of peak specific binding)” value [3] was 80 min. The “K1, average of all regions and all animals” value (baboons) was 0.85 ± 0.23 mL/g/min, the “k2, average of all regions and all animals” value (baboons) was 0.020 ± 0.008 min⁻¹ and the “V3″ expressed in percentage of [^11C]McN 5652 V3″” value (baboons, combining all regions) was 151±18%. For the same compound, the “Mean regional peak uptake time” value (baboons, mean of all regions) was 50 ± 20 min, the “Mean regional wash-out (% decrease between peak time and last scan)” value (baboons, mean of all regions) was 12±11% and the “Cingulate Cortex to cerebellum activity ratio at 90 minutes” value [4] was 1.27 ± 0.05. For the same compound, the “Hippocampus to cerebellum activity ratio at 90 minutes” value [4] was 1.42 ± 0.13, the “Midbrain to cerebellum activity ratio at 90 minutes” value [4] was 2.05 ± 0.31 and the “Occipital Cortex to cerebellum activity ratio at 90 minutes” value [4] was 1.19 ± 0.08. For the same compound, the “Regional uptake peak time Cerebellum” value [4] was 24 ± 10 min, the “Regional uptake peak time Cingulate Cortex” value [4] was 36 ± 8 min and the “Regional uptake peak time Hippocampus” value [4] was 64 ± 15 min. The “Regional uptake peak time Midbrain” value [4] was 71 ± 13 min, the “Regional uptake peak time Occipital Cortex” value [4] was 36 ± 8 min and the “Regional uptake peak time Striatum” value [4] was 51 ± 19 min. For the same compound, the “Regional uptake peak time Temporal Cortex” value [4] was 49 ± 10 min, the “Regional uptake peak time Thalamus” value [4] was 69 ± 13 min and the “Striatum to cerebellum activity ratio at 90 minutes” value [4] was 1.69 ± 0.12. The “Temporal Cortex to cerebellum activity ratio at 90 minutes” value [4] was 1.35 ± 0.16, the “Thalamus to cerebellum activity ratio at 90 minutes” value [4] was 2.15 ± 0.30 and the “Total brain uptake at 45 min” value (baboons, region encompassing the entire brain) was 0.018±0.002 % ID g^−1. The “Regional activity wash-out: % decrease from peak to last scan, Cerebellum” value [5] was 29 ± 14%, the “Regional activity wash-out: % decrease from peak to last scan, Cingulate Cortex” value [5] was 19 ± 9% and the “Regional activity wash-out: % decrease from peak to last scan, Hippocampus” value [5] was 4 ± 5%. The “Regional activity wash-out: % decrease from peak to last scan, Midbrain” value [5] was 2 ± 3%, the “Regional activity wash-out: % decrease from peak to last scan, Occipital Cortex” value [5] was 18 ± 7% and the “Regional activity wash-out: % decrease from peak to last scan, Striatum” value [5] was 8 ± 8%. The “Regional activity wash-out: % decrease from peak to last scan, Temporal Cortex” value [5] was 11 ± 5%, the “Regional activity wash-out: % decrease from peak to last scan, Thalamus” value [5] was 3 ± 4% and the Kp (cingulate cortex, one-tissue compartment model, baboons, mean ± SD of four experiments, read-out: VT Cingulate Cortex) was 37.1 ± 3.8. The Kp (hippocampus, one-tissue compartment model, baboons, mean ± SD of four experiments, read-out: VT Hippocampus) was 44.7 ± 3.4, the Kp (midbrain, one-tissue compartment model, baboons, mean ± SD of four experiments, read-out: VT Midbrain) was 69.2 ± 7 and the Kp (occipital cortex, one-tissue compartment model, baboons, mean ± SD of four experiments, read-out: VT Occipital Cortex) was 35 ± 4.8. The Kp (striatum, one-tissue compartment model, baboons, mean ± SD of four experiments, read-out: VT Striatum) was 52.1 ± 3, the Kp (temporal cortex, one-tissue compartment model, baboons, mean ± SD of four experiments, read-out: VT Temporal Cortex) was 40.5 ± 6 and the Kp (thalamus, one-tissue compartment model, baboons, mean ± SD of four experiments, read-out: VT Thalamus) was 74.4 ± 3.1. For the same compound, the “K1 Cerebellum” value [6] was 0.99 ± 0.29 mL/g/min, the “K1 Cingulate Cortex” value [6] was 0.91 ± 0.24 mL/g/min and the “K1 Hippocampus” value [6] was 0.67 ± 0.16 mL/g/min. The “K1 Midbrain” value [6] was 0.86 ± 0.27 mL/g/min, the “K1 Occipital Cortex” value [6] was 0.83 ± 0.17 mL/g/min and the “K1 Striatum” value [6] was 0.90 ± 0.26 mL/g/min. For the same compound, the “K1 Temporal Cortex” value [6] was 0.78 ± 0.18 mL/g/min, the “K1 Thalamus” value [6] was 0.89 ± 0.26 mL/g/min and the “K2 Cerebellum” value [6] was 0.034 ± 0.009 min⁻¹. The “K2 Cingulate Cortex” value [6] was 0.025 ± 0.006 min⁻¹, the “K2 Hippocampus” value [6] was 0.015 ± 0.003 min⁻¹ and the “K2 Midbrain” value [6] was 0.012 ± 0.003 min⁻¹. The “K2 Occipital Cortex” value [6] was 0.024 ± 0.005 min⁻¹, the “K2 Striatum” value [6] was 0.017 ± 0.005 min⁻¹ and the “K2 Temporal Cortex” value [6] was 0.019 ± 0.004 min⁻¹. For the same compound, the “K2 Thalamus” value [6] was 0.012 ± 0.004 min⁻¹.
